Molecular target: D2 receptor (Homo sapiens, UniProt P14416)
Assay: [3H]Thymidine uptake assay for D2 intrinsic activity
Format: cell-based
Details: test compound 1 μM, 1 μM Quinpirole = 100% intrinsic activity
Method: D2 intrinsic activity of title compounds of the Examples, below, was determined using the [^3H]thymidine uptake assay described below.
[^3H]Thymidine Uptake Assay for D2 Intrinsic Activity
Cells are serum deprived by washing twice with 200 μl of serum-free media. 90 μl serum-free media was added to each well. The plates ware incubated for two to three hours. 10 μl of serum-containing media, as a positive control, vehicle (serum-free media), negative control (an antagonist) or test compounds and standards (10 μl of a 10 μM solution for a final concentration of 1 μM) in serum-free media were added to wells. The plates are returned to the incubator. Eighteen hours later [^3H]thymidine is added (0.5 μCi/well in 10 μl of serum-free media) and the plates are returned to the incubator. […] The plates are returned to the incubator, once again. One hour later the assay is terminated by rapid filtration through Whatman GF/C glass fiber filters. Filters are washed four times with 500 ml of 50 mM Tris-HCl pH 7.0 buffer, for example, using a Brandel MLR-96T cell harvester. […] Intrinsic activity is defined as total uptake (1 μM Quinpirole) minus serum-free media (no uptake). Test compounds are compared to 1 μM Quinpirole (full DA agonist), which was classified as 100% intrinsic activity.

Chain of D2 receptor (P14416 whole entry): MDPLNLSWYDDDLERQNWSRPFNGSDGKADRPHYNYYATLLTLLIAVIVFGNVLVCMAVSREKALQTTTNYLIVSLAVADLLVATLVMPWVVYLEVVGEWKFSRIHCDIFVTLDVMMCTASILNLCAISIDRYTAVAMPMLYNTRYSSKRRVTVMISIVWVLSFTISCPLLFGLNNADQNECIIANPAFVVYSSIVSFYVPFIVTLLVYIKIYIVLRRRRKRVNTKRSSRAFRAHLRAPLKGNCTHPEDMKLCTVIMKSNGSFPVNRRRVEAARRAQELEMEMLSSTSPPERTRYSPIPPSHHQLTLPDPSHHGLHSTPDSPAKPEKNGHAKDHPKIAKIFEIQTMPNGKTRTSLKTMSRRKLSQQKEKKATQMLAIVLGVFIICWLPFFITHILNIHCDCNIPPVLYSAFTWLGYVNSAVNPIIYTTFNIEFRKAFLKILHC

| SMILES | Emax at 1 µM (Table 1) | Emax at 1 µM (Table 2) |
| --- | --- | --- |
| CC(=O)c1ccc(N2CCN(CCCCOc3ccc4c(n3)NC(=O)CC4)CC2)c2ccccc12 [Example A81, 7-{4-[4-(4-Acetyl-naphthalen-1-yl)-piperazin-1-yl]-butoxy}-3,4-dihydro-1H-[1,8]naphthyridin-2-one] | 4% | – |
| CC(=O)c1ccc2ccccc2c1N1CCN(CCCCOc2ccc3c(n2)NC(=O)CC3)CC1 [Example A82, 7-{4-[4-(2-Acetyl-naphthalen-1-yl)-piperazin-1-yl]-butoxy}-3,4-dihydro-1H-[1,8]naphthyridin-2-one] | 27% | – |
| N#Cc1ccc2cccc(N3CCN(CCCCOc4ccc5c(n4)NC(=O)CC5)CC3)c2c1 [Example A83, 8-{4-[4-(7-Oxo-5,6,7,8-tetrahydro-[1,8]naphthyridin-2-yloxy)-butyl]-piperazin-1-yl}-naphthalene-2-carbonitrile] | 36% | – |
| CC(=O)Nc1ccc2cccc(N3CCN(CCCCOc4ccc5c(n4)NC(=O)CC5)CC3)c2c1 [Example A84, N-(8-{4-[4-(7-Oxo-5,6,7,8-tetrahydro-[1,8]naphthyridin-2-yloxy)-butyl]-piperazin-1-yl}-naphthalen-2-yl)-acetamide] | 11% | – |
| O=c1ccc2ccc(OCCCCN3CCN(c4cccc5c4OCCC5)CC3)nc2[nH]1 [Example B1′, 7-[4-(4-Chroman-8-yl-piperazin-1-yl)-butoxy]-1H-[1,8]naphthyridin-2-one] | – | 22% |
| O=c1ccc2ccc(OCCCCN3CCN(c4cccc(C(F)(F)F)c4Cl)CC3)nc2[nH]1 [Example B2, 7-{4-[4-(2-Chloro-3-trifluoromethyl-phenyl)-piperazin-1-yl]-butoxy}-1H-[1,8]naphthyridin-2-one] | 22% | – |
| CC1(C)C=Cc2cccc(N3CCN(CCCCOc4ccc5ccc(=O)[nH]c5n4)CC3)c2O1 [Example B2′, 7-{4-[4-(2,2-Dimethyl-2H-chromen-8-yl)-piperazin-1-yl]-butoxy}-1H-[1,8]naphthyridin-2-one] | – | 33% |
| CC(=O)c1c(Cl)cccc1N1CCN(CCCCOc2ccc3ccc(=O)[nH]c3n2)CC1 [Example B3, 7-{4-[4-(2-Acetyl-3-chloro-phenyl)-piperazin-1-yl]-butoxy}-1H-[1,8]naphthyridin-2-one] | 8% | – |
| CC1(C)CCc2cccc(N3CCN(CCCCOc4ccc5ccc(=O)[nH]c5n4)CC3)c2O1 [Example B3′, 7-{4-[4-(2,2-Dimethyl-chroman-8-yl)-piperazin-1-yl]-butoxy}-1H-[1,8]naphthyridin-2-one] | – | 50% |
| CCc1c(Cl)cccc1N1CCN(CCCCOc2ccc3ccc(=O)[nH]c3n2)CC1 [Example B4, 7-{4-[4-(3-Chloro-2-ethyl-phenyl)-piperazin-1-yl]-butoxy}-1H-[1,8]naphthyridin-2-one] | 22% | – |
| CC1C=Cc2cccc(N3CCN(CCCCOc4ccc5ccc(=O)[nH]c5n4)CC3)c2O1 (centres unmarked) [Example B4′, 7-{4-[4-(2-Methyl-2H-chromen-8-yl)-piperazin-1-yl]-butoxy}-1H-[1,8]naphthyridin-2-one] | – | 28% |
| CC(=O)c1c(F)cccc1N1CCN(CCCCOc2ccc3ccc(=O)[nH]c3n2)CC1 [Example B5, 7-{4-[4-(2-Acetyl-3-fluoro-phenyl)-piperazin-1-yl]-butoxy}-1H-[1,8]naphthyridin-2-one] | 2% | – |
| O=c1ccc2ccc(OCCCCN3CCN(c4cccc5c4OC4(C=C5)CCCC4)CC3)nc2[nH]1 [Example B6′, 7-{4-[4-(Spiro[chromene-2,1′-cyclopentan]-8-yl)-piperazin-1-yl]-butoxy}-1H-[1,8]naphthyridin-2-one] | – | 33% |
| Cc1cc(N2CCN(CCCCOc3ccc4ccc(=O)[nH]c4n3)CC2)c(Cl)cc1F [Example B7, 7-{4-[4-(2-Chloro-4-fluoro-5-methyl-phenyl)-piperazin-1-yl]-butoxy}-1H-[1,8]naphthyridin-2-one] | 28% | – |
| O=c1ccc2ccc(OCCCCN3CCN(c4cccc5c4OC4(CCCC4)CC5)CC3)nc2[nH]1 [Example B7′, 7-{4-[4-(3,4-Dihydrospiro[chromene-2,1′-cyclopentan]-8-yl)-piperazin-1-yl]-butoxy}-1H-[1,8]naphthyridin-2-one] | – | 48% |
| Cc1c(F)ccc(N2CCN(CCCCOc3ccc4ccc(=O)[nH]c4n3)CC2)c1Cl [Example B8, 7-{4-[4-(2-Chloro-4-fluoro-3-methyl-phenyl)-piperazin-1-yl]-butoxy}-1H-[1,8]naphthyridin-2-one] | 17% | – |
| O=c1ccc2ccc(OCCCCN3CCN(c4cccc5c4OCC5)CC3)nc2[nH]1 [Example B8′, 7-{4-[4-(2,3-Dihydro-benzofuran-7-yl)-piperazin-1-yl]-butoxy}-1H-[1,8]naphthyridin-2-one] | – | 21% |
| CC(C)Oc1ccc(Cl)cc1N1CCN(CCCCOc2ccc3ccc(=O)[nH]c3n2)CC1 [Example B9, 7-{4-[4-(5-Chloro-2-isopropoxy-phenyl)-piperazin-1-yl]-butoxy}-1H-[1,8]naphthyridin-2-one] | 23% | – |
| CC1(C)Cc2cccc(N3CCN(CCCCOc4ccc5ccc(=O)[nH]c5n4)CC3)c2O1 [Example B9′, 7-{4-[4-(2,2-Dimethyl-2,3-dihydro-benzofuran-7-yl)-piperazin-1-yl]-butoxy}-1H-[1,8]naphthyridin-2-one] | – | 40% |

| SMILES | Emax at 1 µM (Table 1) | Emax at 1 µM (Table 2) |
| --- | --- | --- |
| CC(C)Oc1ccccc1N1CCN(CCCCOc2ccc3ccc(=O)[nH]c3n2)CC1 [Example B10, 7-{4-[4-(2-Isopropoxy-phenyl)-piperazin-1-yl]-butoxy}-1H-[1,8]naphthyridin-2-one] | 34% | – |
| O=c1ccc2ccc(OCCCCN3CCN(c4cccc5c4CCCO5)CC3)nc2[nH]1 [Example B10′, 7-[4-(4-Chroman-5-yl-piperazin-1-yl)-butoxy]-1H-[1,8]naphthyridin-2-one] | – | 22% |
| CC(C)COc1ccccc1N1CCN(CCCCOc2ccc3ccc(=O)[nH]c3n2)CC1 [Example B11, 7-{4-[4-(2-Isobutoxy-phenyl)-piperazin-1-yl]-butoxy}-1H-[1,8]naphthyridin-2-one] | 31% | – |
| O=c1ccc2ccc(OCCCCN3CCN(c4cccc5c4CCO5)CC3)nc2[nH]1 [Example B11′, 7-{4-[4-(2,3-Dihydro-benzofuran-4-yl)-piperazin-1-yl]-butoxy}-1H-[1,8]naphthyridin-2-one] | – | 21% |
| O=c1ccc2ccc(OCCCCN3CCN(c4cccc5c4OCCO5)CC3)nc2[nH]1 [Example B12′, 7-{4-[4-(2,3-Dihydro-benzo[1,4]dioxin-5-yl)-piperazin-1-yl]-butoxy}-1H-[1,8]naphthyridin-2-one] | – | 24% |
| O=c1ccc2ccc(OCCCCN3CCN(c4ccc(F)cc4)CC3)nc2[nH]1 [Example B13, 7-{4-[4-(4-Fluoro-phenyl)-piperazin-1-yl]-butoxy}-1H-[1,8]naphthyridin-2-one] | 45% | – |
| O=c1ccc2ccc(OCCCCN3CCN(c4cccc5c4OC(F)(F)O5)CC3)nc2[nH]1 [Example B13′, 7-{4-[4-(2,2-Difluoro-benzo[1,3]dioxol-4-yl)-piperazin-1-yl]-butoxy}-1H-[1,8]naphthyridin-2-one] | – | 33% |
| O=c1ccc2ccc(OCCCCN3CCN(c4ccc(F)c(Cl)c4)CC3)nc2[nH]1 [Example B14, 7-{4-[4-(3-Chloro-4-fluoro-phenyl)-piperazin-1-yl]-butoxy}-1H-[1,8]naphthyridin-2-one] | 37% | – |
| O=c1ccc2ccc(OCCCCN3CCN(c4cccc(C(F)(F)F)c4)CC3)nc2[nH]1 [Example B15, 7-{4-[4-(3-Trifluoromethyl-phenyl)-piperazin-1-yl]-butoxy}-1H-[1,8]naphthyridin-2-one] | 17% | – |
| O=c1ccc2ccc(OCCCCN3CCN(c4ccccc4C(F)(F)F)CC3)nc2[nH]1 [Example B16, 7-{4-[4-(2-Trifluoromethyl-phenyl)-piperazin-1-yl]-butoxy}-1H-[1,8]naphthyridin-2-one] | 41% | – |
| CC1(C)COc2c(cccc2N2CCN(CCCCOc3ccc4ccc(=O)[nH]c4n3)CC2)C1=O [Example B16′, 7-{4-[4-(3,3-Dimethyl-4-oxo-chroman-8-yl)-piperazin-1-yl]-butoxy}-1H-[1,8]naphthyridin-2-one] | – | 4% |
| CC(F)(F)c1ccccc1N1CCN(CCCCOc2ccc3ccc(=O)[nH]c3n2)CC1 [Example B17, 7-(4-{4-[2-(1,1-Difluoro-ethyl)-phenyl]-piperazin-1-yl}-butoxy)-1H-[1,8]naphthyridin-2-one] | 43% | – |
| COc1cccc(N2CCN(CCCCOc3ccc4ccc(=O)[nH]c4n3)CC2)c1Cl [Example B18, 7-{4-[4-(2-Chloro-3-methoxy-phenyl)-piperazin-1-yl]-butoxy}-1H-[1,8]naphthyridin-2-one] | 32% | – |
| O=c1ccc2ccc(OCCCCN3CCN(c4cccc5c4OCCCO5)CC3)nc2[nH]1 [Example B20′, 7-{4-[4-(3,4-Dihydro-2H-benzo[b][1,4]dioxepin-6-yl)-piperazin-1-yl]-butoxy}-1H-[1,8]naphthyridin-2-one] | – | 16% |
| O=c1ccc2ccc(OCCCCN3CCN(c4cccc5cccnc45)CC3)nc2[nH]1 [Example B21′, 7-[4-(4-Quinolin-8-yl-piperazin-1-yl)-butoxy]-1H-[1,8]naphthyridin-2-one] | – | 18% |
| O=c1ccc2ccc(OCCCCN3CCN(c4cccc(Cl)c4F)CC3)nc2[nH]1 [Example B22, 7-{4-[4-(3-Chloro-2-fluoro-phenyl)-piperazin-1-yl]-butoxy}-1H-[1,8]naphthyridin-2-one] | 36% | – |
| O=c1ccc2ccc(OCCCCN3CCN(c4cccc5ncccc45)CC3)nc2[nH]1 [Example B22′, 7-[4-(4-Quinolin-5-yl-piperazin-1-yl)-butoxy]-1H-[1,8]naphthyridin-2-one] | – | 12% |
| O=c1ccc2ccc(OCCCCN3CCN(c4ccc(F)cc4Cl)CC3)nc2[nH]1 [Example B23, 7-{4-[4-(2-Chloro-4-fluoro-phenyl)-piperazin-1-yl]-butoxy}-1H-[1,8]naphthyridin-2-one] | 15% | – |
| O=c1ccc2ccc(OCCCCN3CCN(c4cccc5nccnc45)CC3)nc2[nH]1 [Example B23′, 7-[4-(4-Quinoxalin-5-yl-piperazin-1-yl)-butoxy]-1H-[1,8]naphthyridin-2-one] | – | 21% |

From patent publication US7160888B2, “[1,8]naphthyridin-2-ones and related compounds for the treatment of schizophrenia” (Warner Lambert Company LLC, priority 2003, dated 2007)
